Tests used:
[1] = test system: Candida albicans strain #40 fimbriae (enriched fimbriae EF, 66 kDa fimbrial subunit/adhesin protein); assay: Inhibition of fimbriae binding to immobilized glycosphingolipids by free glycosphingolipids
Method: The binding specificity to GSLs was assessed in experiments in which free GSLs were tested for their abilities to inhibit binding of C. albicans fimbriae to immobilized GSLs. These experiments were carried out using the microtiter plate assay described above, and as further detailed in Example 5B. C. albicans fimbriae (50 μg/ml) were preincubated with varying concentrations of asialo-GM1 or CTH at 37° C. for an hour prior to addition into the precoated microtiter wells. In this assay, GSLs were suspended in phosphate buffered saline (PBS) at a sufficiently low concentration to prevent micellar formation. C. albicans fimbriae binding to immobilized asialo-GM1 was reduced by 78% (Diamonds, FIG. 11B) by asialo-GM1.
Polystyrene microtiter plate wells (Nunc) were coated with asialo-GM1 or ceramide trihexoside (CTH) (Sigma Chem. Co., St. Louis, Mo.). Aliquots of the GSLs (5 μg/ml resuspended in methanol) were added into the wells (100 μl/well) and the plates were incubated overnight at 4° C. The wells were washed three times with 250 μl/well of 10 mM phosphate buffered saline pH 7.4 containing 150 mM NaCl (PBS) supplemented with 0.05% (w/v) bovine serum albumin (Buffer A). Excess binding sites were blocked by the addition of 200 μl/well of 5% (w/v) BSA in PBS pH 7.4 and incubation at 37° C. for 1 hour. Wells were washed three times with 250 μl/well of buffer A. Enriched fimbriae ranging from 0 to 40 μg protein/ml in Buffer A were added to the wells (100 μl/well) and incubated for 2 hour at 37° C. Aliquots of mouse anti-EF monoclonal antibodies, Fm16 (diluted 1:500), was added to each well (100 μl) and incubated at 37° C. for 2 hours. Wells were washed 5 times with 250 μl/well of Buffer A. Antibody binding to EF was assessed by the addition of a goat anti-mouse heavy and light chain [IgG(H+L)] immunoglobulin G-peroxidase conjugates (Jackson Laboratories) to each well (100 μl/well) and incubated for 1 hour at 37° C. […] The reaction was stopped by an addition of 125 μl/well of 4 mM sodium azide and the absorbance at 405 nm was recorded. […]

[2] = test system: Candida albicans strain #40 fimbriae (enriched fimbriae EF, 66 kDa fimbrial subunit/adhesin protein); assay: Microtiter plate binding of fimbriae to immobilized glycosphingolipids; conditions: GSL immobilized in microtiter wells (0.5 μg/well)
Method: Binding of Candida fimbriae to GSLs was further assessed using an assay in which GSLs were immobilized on microtiter plates. […] The amount of fimbriae bound is represented as the absorbance values measured at 405 nm. The concentration of fimbrial protein required for half-maximal binding was determined to be 8 μg/ml under the assay conditions, indicating a reasonably high affinity of fimbriae for asialo-GM1.
Polystyrene microtiter plate wells (Nunc) were coated with asialo-GM1 or ceramide trihexoside (CTH) (Sigma Chem. Co., St. Louis, Mo.). Aliquots of the GSLs (5 μg/ml resuspended in methanol) were added into the wells (100 μl/well) and the plates were incubated overnight at 4° C. The wells were washed three times with 250 μl/well of 10 mM phosphate buffered saline pH 7.4 containing 150 mM NaCl (PBS) supplemented with 0.05% (w/v) bovine serum albumin (Buffer A). […] Wells were washed 5 times with 250 μl/well of Buffer A. Antibody binding to EF was assessed by the addition of a goat anti-mouse heavy and light chain [IgG(H+L)] immunoglobulin G-peroxidase conjugates (Jackson Laboratories) to each well (100 μl/well) and incubated for 1 hour at 37° C. […] The reaction was stopped by an addition of 125 μl/well of 4 mM sodium azide and the absorbance at 405 nm was recorded.

[3] = test system: Candida albicans strain #40 fimbriae (enriched fimbriae EF, 66 kDa fimbrial subunit/adhesin protein); assay: Inhibition of fimbriae binding to immobilized βGalNAc(1-4)βGal-BSA conjugate; conditions: plates coated with 10 μg/ml conjugate
Method: Further experiments to determine the specificity of fimbrial binding to GSLs were carried out using a plate binding assay, as described above, but immobilizing on the plates a βGalNAc(1-4)βGal-BSA conjugate, synthesized from βGalNAc(1-4)βGal-O(CH2)8 COOCH3 (Sabesan and Lemieux), as described in Part B, above. The coupling ratio of disaccharide: BSA was 12:1. The protocol utilized for this assay was similar to that employed for the assessment of C. albicans fimbriae binding to GSLs except that the plates were coated with 100 μl/well of a 10 μg/ml solution of synthetic βGalNAc(1-4)βGal-BSA conjugate in 0.01M carbonate buffer, pH 9.5.
Using this assay, it was first determined that fimbriae bind to the βGalNAc(1-4)βGal-BSA conjugate in a saturable, concentration-dependent manner. FIGS. 12A and 12B show the results of experiments in which compounds were tested for ability to inhibit binding of fimbriae to the βGalNAc(1-4)βGal-BSA conjugate. The protocol used in this assay was similar to the one used in the GSL inhibition assay described above, except that the plates were coated with 100 μl/well of a 10 μg/ml solution of synthetic βGalNAc(1-4)βGal-BSA conjugate in 0.01M carbonate buffer, pH 9.5. As depicted in FIG. 12A, βGalNAc(1-4)βGal-methylester ("GalNAcGal") was able to inhibit binding to the GalNAcGal-BSA conjugate in a concentration dependent manner. […]

ceramide trihexoside [CTH, ceramide trihexoside [aGal(1-4)βGal(1-4)βGlc(1-1)Cer]]
Competition of fimbriae binding ([1]; fimbriae 50 μg/ml preincubated with competitor (0 to 15 μg/ml)): No competition
Binding of fimbriae to glycosphingolipid coated on wells ([2]; EF 0 to 40 μg protein/ml): failed to bind

gangliotetraosylceramide: βGal(1-3)βGalNAc(1-4)βGal(1-4)βGlc(1-1)Cer [asialo-GM1]
Reduction of fimbriae binding to immobilized asialo-GM1 ([1]; fimbriae 50 μg/ml preincubated with competitor (0 to 15 μg/ml) 1 h at 37° C.): 78%
Concentration required for half-maximal inhibition ([1]; fimbriae 50 μg/ml, immobilized asialo-GM1): 1.44 µg/mL
Concentration of fimbrial protein required for half-maximal binding ([2]; the concentration is that of fimbrial protein): 8 µg/mL
Concentration required for half-maximal inhibition of fimbriae binding to βGalNAc(1-4)βGal-BSA conjugate [3]: 7.5 µg/mL

Reference: patent publication US5641760A, “Method of treating candida infection” (Pence, Inc., priority 1994, dated 1997)
